According to patent US12226409B2, “Treatment of hepatocellular carcinoma” (Eisai R&D Management Co., Ltd., priority 2017, dated 2025):

Tested on: patients with unresectable HCC
Test: Open-label phase 3 study, safety and side-effect profile (CTCAE v4.0)
[1] = Any grade, listed as lenvatinib

Excerpt: Randomization was stratified according to region (Asia-Pacific or Western regions), macroscopic portal vein invasion and/or extrahepatic spread (yes or no), Eastern Cooperative Oncology Group performance status (0 or 1), and body weight (<60 kg or ≥60 kg).
Safety assessments included recording of vital signs, hematologic and biochemical laboratory testing, urinalysis, and electrocardiography.

COc1cc2nccc(Oc3ccc(NC(=O)NC4CC4)c(Cl)c3)c2cc1C(N)=O [Lenvatinib, 4-(3-chloro-4(cyclopropylaminocarbonyl)aminophenoxy)-7-methoxy-6-quinolinecarboxamide]
TEAE: Alopecia (12 mg starting dose): 9 (2.8) n (%)
TEAE: Ascites (12 mg starting dose): 47 (14.5) n (%)
TEAE: Aspartate aminotransferase increased (12 mg starting dose): 44 (13.5) n (%)
TEAE: Asthenia (12 mg starting dose): 40 (12.3) n (%)
TEAE: Back pain (12 mg starting dose): 39 (12.0) n (%)
TEAE: Blood bilirubin increased (12 mg starting dose): 48 (14.8) n (%)
TEAE: Constipation (12 mg starting dose): 57 (17.5) n (%)
TEAE: Decreased appetite (12 mg starting dose): 112 (34.5) n (%)
TEAE: Diarrhea (12 mg starting dose): 131 (40.3) n (%)
TEAE: Dysphonia (12 mg starting dose): 85 (26.2) n (%)
TEAE: Edema peripheral (12 mg starting dose): 43 (13.2) n (%)
TEAE: Fatigue (12 mg starting dose): 99 (30.5) n (%)
TEAE: Hypertension (12 mg starting dose): 136 (41.8) n (%)
TEAE: Hypothyroidism (12 mg starting dose): 53 (16.3) n (%)
TEAE: Nausea (12 mg starting dose): 69 (21.2) n (%)
TEAE: Palmar-plantar erythrodysesthesia syndrome (12 mg starting dose): 93 (28.6) n (%)
TEAE: Platelet count decreased (12 mg starting dose): 61 (18.8) n (%)
TEAE: Proteinuria (12 mg starting dose): 80 (24.6) n (%)
TEAE: Pyrexia (12 mg starting dose): 45 (13.8) n (%)
TEAE: Rash (12 mg starting dose): 28 (8.6) n (%)
TEAE: Stomatitis (12 mg starting dose): 34 (10.5) n (%)
TEAE: Vomiting (12 mg starting dose): 55 (16.9) n (%)
TEAE: Weight decreased (12 mg starting dose): 104 (32.0) n (%)
TEAE: Dysphonia (Any grade): (23.7) %
TEAE: Proteinuria (Any grade): (24.6) %
TEAE: decreased weight (Any grade): (30.9) %
TEAE: Dysphonia [1]: 23.7%
TEAE: Hypertension [1]: 42.2%
TEAE: Hypothyroidism [1]: 16.4%
TEAE: Proteinuria [1]: 24.6%
Primary reason for discontinuation of treatment: Adverse event (Full Analysis Set): 63 (13.2) n (%)
most common adverse reactions, in order of decreasing frequency (HCC subjects): hypertension, fatigue, diarrhea, decreased appetite, arthralgia/myalgia, and decreased weight
adverse event rate adjusted by patient-years (TEAEs of grade 3 or higher): 3.2
adverse event rate adjusted by patient-years (all TEAEs): 18.9
Dose modification: AST increased (in vivo): 1.9%
Dose modification: ascites (in vivo): 2.1%
Dose modification: hepatic encephalopathy (in vivo): 4.2%
Dose modification: neutrophil count decreased (in vivo): 2.3%
Dose modification: pyrexia (in vivo): 2.5%
Dose modification: vomiting (in vivo): 2.5%
Dose modification: weight decreased (in vivo): 4.2%
Dose reduction/interruption: Gastrointestinal disorders (in vivo): 18.3%
Dose reduction/interruption: General disorders and administration site conditions (in vivo): 14.1%
Dose reduction/interruption: Investigations (in vivo): 17.0%
Dose reduction/interruption: Metabolism and nutrition disorders (in vivo): 10.9%
Dose reduction/interruption: PPE syndrome (in vivo): 5.3%
Dose reduction/interruption: decreased appetite (in vivo): 7.6%
Dose reduction/interruption: diarrhea (in vivo): 7.6%
Dose reduction/interruption: fatigue (in vivo): 5.7%
Dose reduction/interruption: hypertension (in vivo): 6.1%
Dose reduction/interruption: proteinuria (in vivo): 6.9%
Treatment-emergent adverse events of grade 3 or higher, patients (in vivo): 75.0%
Treatment-emergent adverse events, patients (in vivo): 98.7%
WBC count deceased, adjusted by treatment duration (in vivo): 0.25 episodes per SY
dysphonia, adjusted by treatment duration (in vivo): 0.4 episodes per SY
hepatic encephalopathy, adjusted by treatment duration (in vivo): 0.17 episodes per SY
hypothyroidism, adjusted by treatment duration (in vivo): 0.24 episodes per SY
neutrophil count decreased, adjusted by treatment duration (in vivo): 0.21 episodes per SY
proteinuria, adjusted by treatment duration (in vivo): 0.5 episodes per SY
subjects without a TEAE (in vivo): 6 subjects
AEs leading to dose reduction or interruption, subjects (unadjusted for treatment duration): 61.8%
Dose reduction/interruption: Abdominal pain (whole arm): 6 (1.3) n (%)
Dose reduction/interruption: Abdominal pain upper (whole arm): 5 (1.1) n (%)
Dose reduction/interruption: Alanine aminotransferase increased (whole arm): 6 (1.3) n (%)
Dose reduction/interruption: Anemia (whole arm): 3 (0.6) n (%)
Dose reduction/interruption: Ascites (whole arm): 10 (2.1) n (%)
Dose reduction/interruption: Aspartate aminotransferase increased (whole arm): 9 (1.9) n (%)
Dose reduction/interruption: Asthenia (whole arm): 16 (3.4) n (%)
Dose reduction/interruption: Blood and lymphatic system disorders (whole arm): 16 (3.4) n (%)
Dose reduction/interruption: Blood bilirubin increased (whole arm): 20 (4.2) n (%)
Dose reduction/interruption: Decreased appetite (whole arm): 36 (7.6) n (%)
Dose reduction/interruption: Dehydration (whole arm): 6 (1.3) n (%)
Dose reduction/interruption: Diarrhea (whole arm): 36 (7.6) n (%)
Dose reduction/interruption: Dyspnea (whole arm): 8 (1.7) n (%)
Dose reduction/interruption: Edema peripheral (whole arm): 6 (1.3) n (%)
Dose reduction/interruption: Esophageal varices hemorrhage (whole arm): 5 (1.1) n (%)
Dose reduction/interruption: Fatigue (whole arm): 27 (5.7) n (%)
Dose reduction/interruption: Gamma-glutamyltransferase increased (whole arm): 7 (1.5) n (%)
Dose reduction/interruption: Gastrointestinal disorders (whole arm): 87 (18.3) n (%)
Dose reduction/interruption: General disorders and administration site conditions (whole arm): 67 (14.1) n (%)
Dose reduction/interruption: Hepatic encephalopathy (whole arm): 20 (4.2) n (%)
Dose reduction/interruption: Hepatic function abnormal (whole arm): 2 (0.4) n (%)
Dose reduction/interruption: Hepatobiliary disorders (whole arm): 27 (5.7) n (%)
Dose reduction/interruption: Hypertension (whole arm): 29 (6.1) n (%)
Dose reduction/interruption: Hyponatremia (whole arm): 5 (1.1) n (%)
Dose reduction/interruption: Investigations (whole arm): 81 (17.0) n (%)
Dose reduction/interruption: Malaise (whole arm): 5 (1.1) n (%)
Dose reduction/interruption: Metabolism and nutrition disorders (whole arm): 52 (10.9) n (%)
Dose reduction/interruption: Musculoskeletal and connective tissue disorders (whole arm): 18 (3.8) n (%)
Dose reduction/interruption: Myalgia (whole arm): 5 (1.1) n (%)
Dose reduction/interruption: Nausea (whole arm): 16 (3.4) n (%)
Dose reduction/interruption: Nervous system disorders (whole arm): 35 (7.4) n (%)
Dose reduction/interruption: Neutropenia (whole arm): 6 (1.3) n (%)
Dose reduction/interruption: Neutrophil count decreased (whole arm): 11 (2.3) n (%)
Dose reduction/interruption: Palmar-plantar erythrodysesthesia syndrome (whole arm): 25 (5.3) n (%)
Dose reduction/interruption: Platelet count decreased (whole arm): 22 (4.6) n (%)
Dose reduction/interruption: Proteinuria (whole arm): 33 (6.9) n (%)
Dose reduction/interruption: Pyrexia (whole arm): 12 (2.5) n (%)
Dose reduction/interruption: Rash (whole arm): 2 (0.4) n (%)
Dose reduction/interruption: Rash maculo-papular (whole arm): 0 (0.0) n (%)
Dose reduction/interruption: Renal and urinary disorders (whole arm): 40 (8.4) n (%)
Dose reduction/interruption: Respiratory, thoracic and mediastinal disorders (whole arm): 16 (3.4) n (%)
Dose reduction/interruption: Skin and subcutaneous tissue disorders (whole arm): 28 (5.9) n (%)
Dose reduction/interruption: Stomatitis (whole arm): 6 (1.3) n (%)
Dose reduction/interruption: Thrombocytopenia (whole arm): 6 (1.3) n (%)
Dose reduction/interruption: Vascular disorders (whole arm): 33 (6.9) n (%)
Dose reduction/interruption: Vomiting (whole arm): 12 (2.5) n (%)
Dose reduction/interruption: Weight decreased (whole arm): 20 (4.2) n (%)
Dose reduction/interruption: White blood cell count decreased (whole arm): 6 (1.3) n (%)
Subjects with Any TEAEs (whole arm): 470 (98.7) n (%)
Subjects with any TEAEs leading to Dose Reduction or Interruption (whole arm): 294 (61.8) n (%)
TEAE: Abdominal pain (whole arm): 81 (17.0) n (%)
TEAE: Abdominal pain upper (whole arm): 58 (12.2) n (%)
TEAE: Alanine aminotransferase increased (whole arm): 53 (11.1) n (%)
TEAE: Alopecia (whole arm): 14 (2.9) n (%)
TEAE: Ascites (whole arm): 68 (14.3) n (%)
TEAE: Aspartate aminotransferase increased (whole arm): 65 (13.7) n (%)
TEAE: Asthenia (whole arm): 54 (11.3) n (%)
TEAE: Back pain (whole arm): 50 (10.5) n (%)
TEAE: Blood bilirubin increased (whole arm): 71 (14.9) n (%)
TEAE: Constipation (whole arm): 76 (16.0) n (%)
TEAE: Decreased appetite (whole arm): 162 (34.0) n (%)
TEAE: Diarrhea (whole arm): 184 (38.7) n (%)
TEAE: Dysphonia (whole arm): 113 (23.7) n (%)
TEAE: Edema peripheral (whole arm): 66 (13.9) n (%)
TEAE: Fatigue (whole arm): 141 (29.6) n (%)
TEAE: Hypertension (whole arm): 201 (42.2) n (%)
TEAE: Hypothyroidism (whole arm): 78 (16.4) n (%)
TEAE: Nausea (whole arm): 93 (19.5) n (%)
TEAE: Palmar-plantar erythrodysesthesia syndrome (whole arm): 128 (26.9) n (%)
TEAE: Platelet count decreased (whole arm): 87 (18.3) n (%)
TEAE: Proteinuria (whole arm): 117 (24.6) n (%)
TEAE: Pyrexia (whole arm): 69 (14.5) n (%)
TEAE: Rash (whole arm): 46 (9.7) n (%)
TEAE: Stomatitis (whole arm): 45 (9.5) n (%)
TEAE: Vomiting (whole arm): 77 (16.2) n (%)
TEAE: Weight decreased (whole arm): 147 (30.9) n (%)
